We go through twelve molecules from US9580395B2, “Compositions of dual thyrointegrin antagonists and use in vascular-associated disorders” (Vascular Vision Pharmaceutical Company, priority 2009, dated 2017).

For data set [1], the target named is αvβ3 (Homo sapiens, UniProt P05106+P06756). Description: Inhibition of αvβ3-mediated binding in a specific cell adhesion assay. Type of data set: cell-based. The conditions noted are these: at 100 nM.
Data set [2] relates to angiogenesis-induced by the growth factor basic fibroblast growth factor (FGF). Description: Inhibition of FGF-induced angiogenesis in the chick chorioallantoic membrane (CAM) model. The format is in vivo. The conditions noted are these: Gallus gallus; for inhibition at 250 µg/mL: 10 μl at 0.25 mg/ml added to FGF impregnated filter; for inhibition at 0.25 µg/mL: FGF + compound 0.25 μg/ml. On the procedure: To investigate the structure-activity relationships of novel dual Thyrointegrin inhibitors of the present invention, the effect of each compound on angiogenesis-induced by the growth factor basic fibroblast growth factor (FGF) was assessed in the CAM model as depicted in Table 1.
The data in Table 1 represents a mean±standard deviation (SD), n=8 as compared to FGF alone (p<0.001; 10 μl from the different test compounds were added to the FGF impregnated sterile filter).
The CAM system is a widely-used model in which the chick embryonic membrane is exposed to stimulatory and inhibitory compounds. Ten day-old fertilized chicken eggs (Sunrise Farms Inc, Catskill, N.Y.) were incubated at 37° C. and 55% relative humidity. In the dark, with the help of a candling lamp, a small hole was punctured in the area of the shell covering the air sac using a hypodermic needle. A second hole was punctured on the wider side of the egg above an avascular area of the embryonic membrane. An artificial air sac was created below the second hole by gently applying a vacuum to the first hole using a small rubber squeeze bulb. The vacuum caused the separation of the CAM from the shell. A window of approximately 1.0 cm^2 was cut in the shell over the dropped CAM with the use of a mini drill. The underlying CAM was accessed through this small window. Filter disks were punched from filter paper #1 (Whatman International, Ltd, United Kingdom), and then soaked in 3.0 mg/mL cortisone acetate solution (in 95% ethanol) and air-dried under sterile conditions. To induce angiogenesis, sterile filter disks were saturated with FGF and placed on the CAM using sterile forceps. As a control, disks were saturated with PBS without calcium or magnesium. The window was sealed with Highland Brand transparent tape. After 1 hour, 10 μL of inhibitor were applied topically to the FGF-stimulated CAM. After 48 hours, CAM tissue directly beneath the filter disk was harvested and placed in a 35-mm petri dish for evaluation of angiogenesis. Eight eggs were used per treatment.
Digital Imaging and analysis: CAMs in petri dishes were examined using a SV6 stereomicroscope (Carl Zeiss Microlmaging, Inc) at 50× magnification. Digital images were captured using a 3-CCD color video camera system (Toshiba America, Inc, New York, N.Y.). The images were analyzed using Image-Pro Plus (Media Cybernetics, Inc). The number of branch points within a circular region superimposed on the area of the filter disk was counted for each treatment condition.

Data set [3] addresses cell surface receptor αvβ3 (Homo sapiens, UniProt P05106+P06756). The conditions noted are these: literature (Rebbaa et al. 2008); cited from earlier work.
[4] abbreviates: post-ester hydrolysis to make the free acid.
Setting [5] is: 10 μl on FGF filter, mean ± SD, n=8, vs FGF alone.

Sequence of αvβ3 (P06756 31-889 limits assumed): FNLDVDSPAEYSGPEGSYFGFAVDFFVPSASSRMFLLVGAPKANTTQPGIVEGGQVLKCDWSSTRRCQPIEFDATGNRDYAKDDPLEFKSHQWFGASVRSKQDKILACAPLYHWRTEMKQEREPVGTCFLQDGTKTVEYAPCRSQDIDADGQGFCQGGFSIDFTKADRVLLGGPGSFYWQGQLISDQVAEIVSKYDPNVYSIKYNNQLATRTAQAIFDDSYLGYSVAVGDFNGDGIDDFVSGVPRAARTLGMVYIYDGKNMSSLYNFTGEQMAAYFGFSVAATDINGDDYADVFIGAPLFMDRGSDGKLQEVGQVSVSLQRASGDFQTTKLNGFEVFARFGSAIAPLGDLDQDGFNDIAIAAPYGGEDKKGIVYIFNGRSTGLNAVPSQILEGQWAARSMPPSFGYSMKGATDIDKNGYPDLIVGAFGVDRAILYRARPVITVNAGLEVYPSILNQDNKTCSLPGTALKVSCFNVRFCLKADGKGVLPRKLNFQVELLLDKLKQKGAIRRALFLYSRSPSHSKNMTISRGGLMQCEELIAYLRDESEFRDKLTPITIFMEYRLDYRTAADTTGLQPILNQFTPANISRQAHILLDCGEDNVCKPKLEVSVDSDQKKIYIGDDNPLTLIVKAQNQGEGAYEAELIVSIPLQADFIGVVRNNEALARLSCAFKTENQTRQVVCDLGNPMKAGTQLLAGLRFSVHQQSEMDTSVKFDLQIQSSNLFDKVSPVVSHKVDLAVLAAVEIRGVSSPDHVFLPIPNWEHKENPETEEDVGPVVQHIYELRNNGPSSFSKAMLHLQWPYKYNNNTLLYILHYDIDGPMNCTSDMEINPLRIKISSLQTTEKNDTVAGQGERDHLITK
Sequence of αvβ3 (P06756 891-1048 partner limits assumed): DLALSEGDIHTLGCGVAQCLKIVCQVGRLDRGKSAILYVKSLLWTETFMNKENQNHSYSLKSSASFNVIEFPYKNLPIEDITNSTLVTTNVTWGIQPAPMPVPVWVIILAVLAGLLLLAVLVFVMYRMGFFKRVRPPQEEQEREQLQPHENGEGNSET
Sequence of αvβ3 (P05106 27-788): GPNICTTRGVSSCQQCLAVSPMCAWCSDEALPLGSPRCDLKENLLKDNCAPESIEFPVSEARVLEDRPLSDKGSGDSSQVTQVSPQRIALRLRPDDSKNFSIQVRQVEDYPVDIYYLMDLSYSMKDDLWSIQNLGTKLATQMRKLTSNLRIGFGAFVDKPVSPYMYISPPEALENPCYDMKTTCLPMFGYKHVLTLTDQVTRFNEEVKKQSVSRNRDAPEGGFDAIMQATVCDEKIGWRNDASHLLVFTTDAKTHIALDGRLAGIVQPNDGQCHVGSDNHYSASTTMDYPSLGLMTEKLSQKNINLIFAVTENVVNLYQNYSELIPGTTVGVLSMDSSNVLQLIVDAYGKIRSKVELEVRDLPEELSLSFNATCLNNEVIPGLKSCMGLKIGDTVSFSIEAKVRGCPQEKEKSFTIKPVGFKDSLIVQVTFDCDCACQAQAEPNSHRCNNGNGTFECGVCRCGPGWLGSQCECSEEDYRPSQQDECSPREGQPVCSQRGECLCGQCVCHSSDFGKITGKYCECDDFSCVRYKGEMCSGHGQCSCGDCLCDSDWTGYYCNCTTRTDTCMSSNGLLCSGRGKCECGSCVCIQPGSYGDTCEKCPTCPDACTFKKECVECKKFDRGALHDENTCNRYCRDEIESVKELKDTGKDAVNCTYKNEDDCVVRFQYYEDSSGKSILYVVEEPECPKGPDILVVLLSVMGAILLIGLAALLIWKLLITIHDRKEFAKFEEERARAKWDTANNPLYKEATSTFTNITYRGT
Sequence of cell surface receptor αvβ3 (P06756 31-889 limits assumed): as the sequence (P06756 31-889 limits assumed) above
Sequence of cell surface receptor αvβ3 (P06756 891-1048 partner limits assumed): as the sequence (P06756 891-1048 partner limits assumed) above
Sequence of cell surface receptor αvβ3 (P05106 27-788): as the sequence (P05106 27-788) above

`CC(C)(C)OC(=O)NCCCOc1c(I)cc(Oc2c(I)cc(CC(=O)O)cc2I)cc1I` [compound 30]: the inhibition at 0.1 µM in data set [1] was found to be 66 ± 8%. Further, the inhibition at 250 µg/mL in data set [2] was 75 ± 7%.
Taken in the same sequence, the figures for `COC(=O)Cc1cc(I)c(Oc2cc(I)c(OCCCNCc3cccnc3)c(I)c2)c(I)c1` [compound 33] were 0% and 0%.
`NCCCOc1c(I)cc(Oc2c(I)cc(CC(=O)O)cc2I)cc1I` [compound 32] displayed an inhibition at 0.1 µM in data set [1] (setting [4]) of 100%. The inhibition at 250 µg/mL in data set [2] (setting [4]) amounted to 88 ± 8%.
`NC(=O)NCCOc1c(I)cc(Oc2c(I)cc(CC(=O)O)cc2I)cc1I` [compound 22, (4-{4-[2-(Carbamoylamino)ethoxy]-3,5-diiodophenoxy}-3,5-diiodophenyl)acetic acid] showed a melting point of 267 °C. Besides, the inhibition at 0.25 µg/mL in data set [2] (setting [5]) stood at 74 ± 13%.
Turning to `O=C(O)Cc1cc(I)c(Oc2cc(I)c(O)c(I)c2)c(I)c1` [Tetrac, [4-(4-Hydroxy-3,5-diiodophenoxy)-3,5-diiodophenyl]acetic acid, reference compound], in data set [3], the “affinity of binding to αvβ3” value is recorded as “weak affinity”. Besides, the inhibition at 10 µg/mL in data set [2] (FGF + compound 10 μg/ml, 10 μl on FGF filter, mean ± SD, n=8, vs FGF alone) turned out to be 85 ± 11%.
In turn, `O=C(O)Cc1cc(I)c(Oc2cc(I)c(OCCCN3CCSCC3)c(I)c2)c(I)c1` [compound 36] had an inhibition at 0.1 µM in data set [1] (setting [4]) of 93 ± 8%. In data set [2] (setting [4]), this molecule returned an inhibition at 250 µg/mL of 89 ± 10%.
In turn, `COC(=O)Cc1cc(I)c(Oc2cc(I)c(OCCCN)c(I)c2)c(I)c1` [compound 31] registered an inhibition at 0.1 µM in data set [1] of 0%. Further, testing at 250 µg/mL in data set [2] gave an inhibition of 0%.
The molecule `COC(=O)Cc1cc(I)c(Oc2cc(I)c(OCCCN3CCSCC3)c(I)c2)c(I)c1` [compound 35] showed an inhibition at 0.1 µM in data set [1] of 0%. Further, the inhibition at 250 µg/mL in data set [2] turned out to be 0%.
For the molecule `CCN(CC)CCCOc1c(I)cc(Oc2c(I)cc(CC(=O)OC)cc2I)cc1I` [compound 37], the values for the inhibition at 0.1 µM in data set [1] and in data set [1] (setting [4]) were 1% and 100%, respectively. Also, the inhibition at 250 µg/mL in data set [2] amounted to 0%; in data set [2] (setting [4]), 83%.
Take `NC(N)=NCCOc1c(I)cc(Oc2c(I)cc(CC(=O)[O-])cc2I)cc1I.[Li+]` [compound 21, Lithium [4-(4-{2-[(diaminomethylene)amino]ethoxy}-3,5-diiodophenoxy)-3,5-diiodophenyl]acetate]: the melting point amounted to 133 °C. Moreover, the inhibition at 0.25 µg/mL in data set [2] (setting [5]) is 75 ± 10%.
Regarding `NCCCOc1c(I)cc(Oc2c(I)cc(CC(=O)O)cc2I)cc1I` [compound 23, {4-[4-(3-aminopropoxy)-3,5-diiodophenoxy]-3,5-diiodophenyl}acetic acid], the inhibition at 0.25 µg/mL in data set [2] (setting [5]) was 88 ± 11%.
With `O=C(O)Cc1cc(I)c(Oc2cc(I)c(OCCCNCc3cccnc3)c(I)c2)c(I)c1` [compound 34], the inhibition at 0.1 µM in data set [1] (setting [4]) was 68 ± 7%. In addition, in data set [2] (setting [4]), the inhibition at 250 µg/mL worked out at 95 ± 11%.

Usually inhibition stands for the share of the control response that was lost under treatment. One may read the melting point as the temperature of the solid-liquid transition.
